Measured values reported in PMC10223884, “Oligosaccharide Ligands of Galectin-4 and Its Subunits: Multivalency Scores Highly” (Molecules, 2023).
Where “and” joins values, the source holds several entries; their conditions need not be identical. Equal entries are not always repeated.

T1: Gal-4NL (Homo sapiens, UniProt P56470)
T1 construct: designated as Gal-4NL (aa 1-160), and Gal-4CL (aa 169-323), respectively; made in house; host or cells: E. coli Rosetta (DE3) pLysS
T1 sequence (P56470 1-160): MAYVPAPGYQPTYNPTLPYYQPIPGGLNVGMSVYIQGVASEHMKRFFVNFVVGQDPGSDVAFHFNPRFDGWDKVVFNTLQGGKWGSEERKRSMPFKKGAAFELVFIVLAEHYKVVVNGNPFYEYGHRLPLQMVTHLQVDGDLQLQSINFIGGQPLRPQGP

T2: Gal-4CL (Homo sapiens, UniProt P56470)
T2 construct: designated as Gal-4NL (aa 1-160), and Gal-4CL (aa 169-323), respectively; made in house; host or cells: E. coli Rosetta (DE3) pLysS
T2 sequence (P56470 169-323): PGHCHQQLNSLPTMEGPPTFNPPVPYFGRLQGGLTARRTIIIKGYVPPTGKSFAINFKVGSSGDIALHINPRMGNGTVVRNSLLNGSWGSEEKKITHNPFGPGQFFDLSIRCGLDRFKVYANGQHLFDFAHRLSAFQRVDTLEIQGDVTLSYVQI

T3: Gal-4 (Homo sapiens, UniProt P56470)
T3 construct: made in house; host or cells: Escherichia coli Rosetta (DE3) pLysS
T3 sequence (P56470 1-323): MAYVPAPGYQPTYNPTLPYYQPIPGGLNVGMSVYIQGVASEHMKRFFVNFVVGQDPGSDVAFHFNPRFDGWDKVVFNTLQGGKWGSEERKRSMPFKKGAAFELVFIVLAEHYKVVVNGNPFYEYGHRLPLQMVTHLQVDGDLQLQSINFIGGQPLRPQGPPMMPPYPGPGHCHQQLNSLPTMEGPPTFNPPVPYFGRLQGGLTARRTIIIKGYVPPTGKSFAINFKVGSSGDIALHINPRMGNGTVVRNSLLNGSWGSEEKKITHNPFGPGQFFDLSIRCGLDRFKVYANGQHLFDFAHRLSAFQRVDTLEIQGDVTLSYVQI

T4: asialofetuin (standard glycoprotein, MW 48.4 kDa) (UniProt P12763 19-359, glycoprotein without sialic acid; carries up to nine LacNAc epitopes)
T4 construct: Asialofetuin (desialylated fetuin), MW 48.4 kDa; Commercial asialofetuin is commonly from fetal calf serum; also called ASF
T4 sequence (looked up): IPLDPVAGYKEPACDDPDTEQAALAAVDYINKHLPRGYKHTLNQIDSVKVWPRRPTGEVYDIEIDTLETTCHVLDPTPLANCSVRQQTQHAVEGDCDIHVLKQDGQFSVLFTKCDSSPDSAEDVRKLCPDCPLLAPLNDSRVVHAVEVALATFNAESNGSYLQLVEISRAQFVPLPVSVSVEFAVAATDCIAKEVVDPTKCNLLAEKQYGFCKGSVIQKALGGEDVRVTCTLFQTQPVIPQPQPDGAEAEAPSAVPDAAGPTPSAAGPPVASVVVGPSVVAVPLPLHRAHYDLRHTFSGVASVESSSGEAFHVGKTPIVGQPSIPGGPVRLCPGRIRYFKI


Experiments:
Gal-4NL [1] = biological target: T1, Gal-4NL; test: competitive ELISA, inhibition of binding of Gal-4NL subunit to immobilized ASF; settings: for IC50: competitive ELISA, Gal-4NL 25 µM, immobilized ASF
Protocol: (§1) To design the ELISA method, we first examined the direct binding of the whole Gal-4, Gal-4NL, and Gal-4-CL to standard glycoprotein asialofetuin (ASF, MW 48.4 kDa), which carries up to nine LacNAc epitopes. The ASF was immobilized by hydrophobic interaction in microtiter-plate wells, and the binding of increasing concentrations of Gal-4 proteins was quantified by colorimetric immunodetection using horseradish peroxidase conjugated to an anti-His-tag antibody. The apparent dissociation constants (KD) were calculated from the non-linear regression of the binding curves (Figure 3). […] While for the Gal-4 ELISA measurement we used the concentration of Gal-4 of 2.5 μM, for both subunits, it was 25 μM. […] The Gal-4 proteins were incubated with increasing concentrations of the respective inhibitors, and the concentration-dependent inhibition of the binding to the immobilized ASF was quantified using spectrophotometric colorimetric immunodetection (HRP-conjugated anti-His-tag antibody). The respective half-maximal inhibition constants (IC50) were calculated from the non-linear regression of the sigmoidal curves (Figure 3), and they are shown in Table 2 and Table 3.
(§2) Each incubation step was followed by washing the wells with 3 × 250 µL phosphate-buffered saline (PBS) containing 0.05% Tween® 20. In total, 0.1 µM ASF in PBS (50 µL/well) was coated onto microtiter plates (Nunc Immuno Sorb, ThermoFisher Scientific, Waltham, MA, USA) overnight. After blocking the wells with 2 mg/mL bovine serum albumin (BSA) in PBS buffer (250 µL/well, 1 h), serial dilutions of the inhibitors in PBS buffer containing 2 mM EDTA (EPBS) were incubated with Gal-4 (2.5 µM final dimer concentration) or its subunits, Gal-4CL and Gal-4NL (25 µM final monomer concentration) for 2 h (50 µL/well). The residual bound galectin was labeled with an anti-His-antibody conjugated with horseradish peroxidase (HRP) (Santa Cruz Biotechnology, Heidelberg, Germany; 1:999 dilution in PBS). The colorimetric reaction with TMB One substrate solution (Kem-En-Tec, Taastrup, Denmark; 50 µL/well) was stopped with 3 M hydrochloric acid (HCl) (50 µL/well) and quantified spectrophotometrically at 450 nm (Sunrise; Tecan Group Ltd., Männedorf, Switzerland). The values of half-maximal inhibitory concentrations (IC50) were calculated by non-linear regression (dose–response inhibition-variable slope) of sigmoidal curves from a minimum of three independent experiments using GraphPad Prism 8.4.3 (GraphPad Software, San Diego, CA, USA).

Gal-4CL = biological target: T2, Gal-4CL; test: competitive ELISA, inhibition of binding of Gal-4CL subunit to immobilized ASF; settings: for IC50: competitive ELISA, Gal-4CL 25 µM, immobilized ASF
Protocol: as §1, §2

Gal-4 = biological target: T3, Gal-4; test: competitive ELISA, inhibition of binding of whole Gal-4 to immobilized ASF; settings: for IC50: competitive ELISA, Gal-4 2.5 µM, immobilized ASF; for rp, relative potency (IC50 (lactose)/IC50 (ligand)): whole Gal-4
Protocol: as §1, §2

Gal-4NL [2] = biological target: Gal-4NL; set-up: method as in PMID 33968903; settings: ITC; cited from earlier work
[3] = biological target: T4, asialofetuin (standard glycoprotein, MW …); test: ELISA; direct ELISA; ASF (0.1 µM in PBS) coated on microtiter plate overnight, blocked with BSA; increasing concentrations of Gal-4 or its subunits, 2 h; detected with HRP-conjugated anti-His antibody; apparent KD from non-linear regression; settings: both partners purified
[4] = dynamic light scattering (DLS) of Gal-4 and its subunits in solution; assay type: physicochemical; settings: 25 µM, 25 °C
Protocol: Therefore, we decided to obtain more insights into the potential aggregation behavior of the Gal-4 subunits in solution, which, theoretically, might have contributed to the multivalency effect, even with the monovalent Gal-4 subunits. The hydrodynamic radii of the whole Gal-4 and its subunits in the concentrations used in the ELISA assay (25 µM) were assessed using dynamic light scattering (DLS). This method provided information about the size distribution of the particles in the samples (Table 4). […] Therefore, the larger particles seemed to be more abundant in these distribution diagrams because light scattering is proportional to the sixth power of the scattering-matter diameter. To avoid misinterpretation, we also present the volume-weighed size distributions in Table 4, which highlight the most abundant populations of particles. These values indicate that in the cases of the whole Gal-4 and Gal-4CL, the large aggregates at 1200 nm and 400 nm, respectively, can be neglected (the volume-weighted size distributions accounted for 9 and 7 nm, respectively). The whole Gal-4 formed the most abundant particles, of 11 nm, which was similar to Gal-4CL with 8 nm particles. In the case of Gal-4NL, the solution was more polydisperse, and two significant populations were observed. The first population, of 1.3 nm, probably represented the individual Gal-4NL subunits, whereas the slightly larger population of 16 nm belonged to the aggregated species.
The hydrodynamic diameter of the Gal-4 and its subunits (25 μM) was measured by dynamic light scattering (DLS) using Zetasizer Nano S90 (Malvern Instruments Ltd., Malvern, UK) at 25 °C. The light scattered at θ = 173° from the incident light was fitted to an autocorrelation function using the method of cumulants (Malvern Instruments Ltd., Malvern, UK). The hydrodynamic diameters were determined from five independent repetitions (10–50 runs) in Malvern disposable plastic cuvettes. The particle-size distribution was determined by analyzing the multimodal peak by intensity and volume.

Molecule	rp Gal-4NL, relative potency (IC50 (lactose)/IC50 (ligand)) (Gal-4NL [1])	IC50 (Gal-4NL [1])	rp Gal-4CL, relative potency (IC50 (lactose)/IC50 (ligand)) (Gal-4CL)	IC50 (Gal-4CL)	IC50 (Gal-4)	rp, relative potency (IC50 (lactose)/IC50 (ligand)) (Gal-4)	further results
C[C@@H]1O[C@@H](O[C@H]2[C@H](O[C@H]3[C@H](O)[C@@H](O)C(O)O[C@@H]3CO)O[C@H](CO)[C@H](O)[C@@H]2O)[C@@H](O)[C@H](O)[C@@H]1O (stereo partly shown) [2′-fucosyllactose (2), 2′-fucosyllactose]	4.8	600 ± 60 µM	7.8	1100 ± 100 µM	1500 ± 200 µM	1.7	–
CC(=O)N[C@H]1C(O)O[C@H](CO)[C@H](O)[C@@H]1O[C@@H]1O[C@H](CO)[C@H](O)[C@H](O)[C@H]1O (stereo partly drawn) [TF antigen motif (9), β-D-galactopyranosyl-(1→3)-2-acetamido-2-deoxy-D-galactopyranose]	0.8	3500 ± 200 µM	1.5	5800 ± 500 µM	1180 ± 50 µM	2.1	–
C[C@@H]1O[C@@H](O[C@H]2[C@H](O[C@H]3[C@H](O)[C@@H](O)C(O)O[C@@H]3CO)O[C@H](CO)[C@H](O)[C@@H]2O[C@H]2O[C@H](CO)[C@H](O)[C@H](O)[C@H]2O)[C@@H](O)[C@H](O)[C@@H]1O (stereo partly shown) [blood-group antigen B (6), blood-group antigen B type 6]	11	260 ± 10 µM	28	300 ± 30 µM	80 ± 30 µM	31	Kd (Gal-4NL [2]): 51 µM
CC(=O)N[C@H]1[C@H](O[C@H]2[C@@H](O)[C@@H](CO)O[C@@H](O[C@H]3[C@H](O)[C@@H](O)C(O)O[C@@H]3CO)[C@@H]2O)O[C@H](CO)[C@@H](O[C@@H]2O[C@H](CO)[C@H](O)[C@H](O)[C@H]2O)[C@@H]1O (stereo partly shown) [lacto-N-neotetraose (4), lacto-N-neotetraose]	7.3	400 ± 100 µM	10	800 ± 300 µM	600 ± 100 µM	4.1	–
CC(=O)N[C@H]1[C@H](O[C@H]2[C@@H](O)[C@@H](CO)O[C@@H](O[C@H]3[C@H](O)[C@@H](O)C(O)O[C@@H]3CO)[C@@H]2O)O[C@H](CO)[C@@H](O)[C@@H]1O[C@@H]1O[C@H](CO)[C@H](O)[C@H](O)[C@H]1O (stereo partly shown) [lacto-N-tetraose (3), lacto-N-tetraose]	14	210 ± 30 µM	18.3	470 ± 900 µM	430 ± 70 µM	5.9	–
OC[C@H]1O[C@@H](O[C@H]2[C@H](O)[C@@H](O)[C@H](O)O[C@@H]2CO)[C@H](O)[C@@H](O)[C@H]1O [lactose (1), lactose]	1.0	2900 ± 400 µM	1.0	8600 ± 1100 µM	2500 ± 200 µM	1.0	–
CC(C)(C)OC(=O)NCCNC(=S)N[C@@H]1O[C@H](CO)[C@@H](O[C@@H]2O[C@H](CO)[C@H](O)[C@H](O)[C@H]2O)[C@H](O)[C@H]1O [lactosyl-tBoc 10]	–	–	–	–	2500 µM	–	–
Galectin-4 (whole, His6-tagged construct of human Gal-4) (natural protein, UniProt P56470 1-323, looked up, Galectin-4, human, whole protein (two CRDs joined by the linker peptide); also called whole Gal-4; total Gal-4; not shown: His6, N-terminal, kept) MAYVPAPGYQPTYNPTLPYYQPIPGGLNVGMSVYIQGVASEHMKRFFVNFVVGQDPGSDVAFHFNPRFDGWDKVVFNTLQGGKWGSEERKRSMPFKKGAAFELVFIVLAEHYKVVVNGNPFYEYGHRLPLQMVTHLQVDGDLQLQSINFIGGQPLRPQGPPMMPPYPGPGHCHQQLNSLPTMEGPPTFNPPVPYFGRLQGGLTARRTIIIKGYVPPTGKSFAINFKVGSSGDIALHINPRMGNGTVVRNSLLNGSWGSEEKKITHNPFGPGQFFDLSIRCGLDRFKVYANGQHLFDFAHRLSAFQRVDTLEIQGDVTLSYVQI	–	–	–	–	–	–	Kd [3]: 3.3 ± 1.1 µM
Gal-4NL: N-terminal subunit of Gal-4 (aa 1-160) with 10-amino-acid linker, His-tagged (protein, left off: His6, N-terminal, kept, N-terminal subunit of Gal-4 (aa 1-160) with 10-amino-acid linker, His-tagged) MAYVPAPGYQPTYNPTLPYYQPIPGGLNVGMSVYIQGVASEHMKRFFVNFVVGQDPGSDVAFHFNPRFDGWDKVVFNTLQGGKWGSEERKRSMPFKKGAAFELVFIVLAEHYKVVVNGNPFYEYGHRLPLQMVTHLQVDGDLQLQSINFIGGQPLRPQGP	–	–	–	–	–	–	Intensity-Weighed Size Distribution Area (first population) [4]: 13%; Intensity-Weighed Size Distribution Area (second population) [4]: 50%; Intensity-Weighed Size Distribution Size (first population) [4]: 1.3 nm and 1.3 ± 0.3 nm; Intensity-Weighed Size Distribution Size (second population) [4]: 16 nm and 16 ± 7 nm; PDI, polydispersity index [4]: 0.4; Volume-Weighted Size Distribution Area [4]: 100%; Volume-Weighted Size Distribution Size [4]: 3 ± 1 nm
